# Compound: COc1nc(N)nc2c1ncn2[C@@H]1O[C@H](CO)[C@@H](O)[C@@H]1O [Nelarabine] + N=C(N)NC(=N)NCCc1ccccc1 [Phenformin] (partner 250 µM)
# Test: relative viability (nuclei count vs DMSO), 5 days (fraction); higher = more cells survive
# Settings: first compound 0.01 µM
# How it was run: (§1)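 Lung cancer cell lines in 1536-well plates were dosed by pin tool the day after seeding, either with one drug alone or with a fixed anchor-drug dose plus five library-drug doses (not always all listed) in √10 steps. After 5 days, cells were fixed and their nuclei stained in one step (final 0.05% Triton X-100, 1% formaldehyde, 1 ug/ml Hoechst), then counted on 4× images. Relative viability is the nuclei count in treated wells divided by that in vehicle wells. Values are medians of duplicate plates.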
row,Cell Line,relative viability
1,LXF-289,0.532
2,NCI-H23,0.778
3,NCI-H322M,0.819
4,NCI-H358,0.441
5,NCI-H441,0.862
6,NCI-H460,1.35
7,NCI-H520,0.811
8,NCI-H522,0.727
9,NCI-H596,0.778
10,NCI-H647,0.641
11,NCI-H650,0.505
12,NCI-H661,0.282
13,NCI-H1563,0.707
14,NCI-H1623,0.44

# Same assay, conditions: first compound 0.03162 µM
row,Cell Line,relative viability
1,201T,0.416
2,A549,0.116
3,A-427,0.22
4,ABC-1,0.212
5,BEN,0.269
6,CAL-12T,0.575
7,COR-L23,0.385
8,COR-L 105,0.594
9,ChaGo-K-1,0.426
10,EKVX,0.234
11,EPLC-272H,0.291
12,H3255,0.361
13,HARA,0.488
14,HCC-15,0.443
15,HCC-44,0.157
16,HCC-78,0.684
17,HCC-366,0.602
18,HCC-827,0.378
19,HOP-62,0.508

row,Cell Line,relative viability
1,LC-2-ad,0.613
2,LCLC-97TM1,0.446
3,LCLC-103H,0.283
4,LOU-NH91,0.782
5,LU99A,0.767
6,LXF-289,0.574
7,NCI-H23,0.766
8,NCI-H322M,0.716
9,NCI-H358,0.308
10,NCI-H441,0.93
11,NCI-H460,0.648
12,NCI-H520,0.343
13,NCI-H522,0.661
14,NCI-H596,0.749
15,NCI-H647,0.301
16,NCI-H650,0.425
17,NCI-H661,0.277
18,NCI-H1563,0.665
19,NCI-H1623,0.508

# Same assay, conditions: first compound 0.1 µM
row,Cell Line,relative viability
1,201T,0.451
2,A549,0.161
3,A-427,0.306
4,ABC-1,0.258
5,BEN,0.276
6,CAL-12T,0.533
7,COR-L23,0.356
8,COR-L 105,0.473
9,ChaGo-K-1,0.458
10,EKVX,0.231
11,EPLC-272H,0.272
12,H3255,0.341
13,HARA,0.422
14,HCC-15,0.426
15,HCC-44,0.173
16,HCC-366,0.663
17,HCC-827,0.308
18,HOP-62,0.696
19,LC-2-ad,0.637

row,Cell Line,relative viability
1,LCLC-97TM1,0.339
2,LCLC-103H,0.333
3,LK-2,0.236
4,LOU-NH91,0.741
5,LU99A,0.837
6,LXF-289,0.526
7,NCI-H23,0.684
8,NCI-H322M,0.762
9,NCI-H358,0.305
10,NCI-H441,0.666
11,NCI-H460,0.646
12,NCI-H520,0.638
13,NCI-H522,0.594
14,NCI-H596,0.747
15,NCI-H647,0.631
16,NCI-H650,0.46
17,NCI-H661,0.276
18,NCI-H1563,0.63
19,NCI-H1623,0.584

# Same assay, conditions: first compound 0.3162 µM
row,Cell Line,relative viability
1,201T,0.433
2,A549,0.119
3,A-427,0.289
4,ABC-1,0.231
5,BEN,0.221
6,CAL-12T,0.582
7,COR-L23,0.416
8,COR-L 105,0.454
9,ChaGo-K-1,0.529
10,EKVX,0.22
11,EPLC-272H,0.265
12,H3255,0.321
13,HARA,0.579
14,HCC-15,0.51
15,HCC-44,0.167
16,HCC-78,0.709
17,HCC-366,0.585
18,HCC-827,0.352
19,HOP-62,0.777
20,LC-2-ad,0.54

row,Cell Line,relative viability
1,LCLC-97TM1,0.426
2,LCLC-103H,0.328
3,LK-2,0.387
4,LOU-NH91,0.768
5,LU99A,0.864
6,LXF-289,0.571
7,NCI-H23,0.847
8,NCI-H322M,0.776
9,NCI-H358,0.356
10,NCI-H441,0.898
11,NCI-H460,0.611
12,NCI-H520,0.806
13,NCI-H522,0.716
14,NCI-H596,0.812
15,NCI-H647,0.501
16,NCI-H650,0.457
17,NCI-H661,0.274
18,NCI-H1563,0.73
19,NCI-H1623,0.544

# Same assay, conditions: first compound 1 µM
row,Cell Line,relative viability
1,201T,0.417
2,A549,0.143
3,A-427,0.236
4,ABC-1,0.229
5,BEN,0.273
6,CAL-12T,0.621
7,COR-L23,0.448
8,COR-L 105,0.458
9,ChaGo-K-1,0.48
10,EKVX,0.232
11,EPLC-272H,0.291
12,H3255,0.337
13,HARA,0.505
14,HCC-15,0.498
15,HCC-44,0.185
16,HCC-78,0.701
17,HCC-366,0.589
18,HCC-827,0.443
19,HOP-62,0.667
20,LC-2-ad,0.536

row,Cell Line,relative viability
1,LCLC-97TM1,0.42
2,LCLC-103H,0.345
3,LK-2,0.472
4,LOU-NH91,0.751
5,LU99A,0.854
6,LXF-289,0.524
7,NCI-H23,0.79
8,NCI-H322M,0.745
9,NCI-H358,0.377
10,NCI-H441,0.883
11,NCI-H460,0.482
12,NCI-H520,0.513
13,NCI-H522,0.728
14,NCI-H596,0.86
15,NCI-H647,0.427
16,NCI-H650,0.461
17,NCI-H661,0.258
18,NCI-H1563,0.665
19,NCI-H1623,0.545

# Compound: C=CCn1c(=O)c2cnc(Nc3ccc(N4CCN(C)CC4)cc3)nc2n1-c1cccc(C(C)(C)O)n1 [Adavosertib] + COc1cccc2cc(-c3nc([C@H]4CC[C@H](C(=O)O)CC4)n4ncnc(N)c34)[nH]c12 [OSI-027] (partner 0.5 µM)
# Test: as above
# Settings: first compound 0.01 µM
# How it was run: as §1
row,Cell Line,relative viability
1,201T,0.667
2,A-427,0.472
3,ABC-1,0.411
4,BEN,0.293
5,CAL-12T,0.568
6,COR-L23,0.858
7,COR-L 105,0.598
8,ChaGo-K-1,0.546
9,EKVX,0.729
10,EPLC-272H,0.31
11,H3255,0.506
12,HARA,0.485
13,HCC-15,0.669
14,HCC-44,0.525
15,HCC-78,0.355
16,HCC-366,0.964
17,HCC-827,0.779
18,HOP-62,0.92
19,LC-2-ad,0.834
20,LCLC-97TM1,0.484

row,Cell Line,relative viability
1,LCLC-103H,0.458
2,LK-2,0.17
3,LOU-NH91,0.65
4,LU99A,0.314
5,LXF-289,0.809
6,NCI-H23,0.604
7,NCI-H322M,0.621
8,NCI-H358,0.786
9,NCI-H441,0.758
10,NCI-H460,0.758
11,NCI-H520,0.298
12,NCI-H522,0.809
13,NCI-H596,0.784
14,NCI-H647,0.635
15,NCI-H650,0.476
16,NCI-H661,0.762
17,NCI-H1563,0.737
18,NCI-H1623,0.427
19,NCI-H1648,0.273

# Same assay, conditions: first compound 0.03162 µM
row,Cell Line,relative viability
1,201T,0.734
2,A-427,0.411
3,ABC-1,0.406
4,BEN,0.333
5,CAL-12T,0.711
6,COR-L23,0.745
7,COR-L 105,0.677
8,ChaGo-K-1,0.633
9,EKVX,0.77
10,EPLC-272H,0.279
11,H3255,0.654
12,HARA,0.486
13,HCC-15,0.786
14,HCC-44,0.484
15,HCC-78,0.354
16,HCC-366,1.02
17,HCC-827,0.832
18,HOP-62,0.907
19,LC-2-ad,0.94
20,LCLC-97TM1,0.459

row,Cell Line,relative viability
1,LCLC-103H,0.441
2,LK-2,0.208
3,LOU-NH91,0.707
4,LU99A,0.282
5,LXF-289,0.678
6,NCI-H23,0.631
7,NCI-H322M,0.547
8,NCI-H358,0.913
9,NCI-H441,0.56
10,NCI-H460,0.667
11,NCI-H520,0.262
12,NCI-H522,0.784
13,NCI-H596,0.914
14,NCI-H647,0.609
15,NCI-H650,0.606
16,NCI-H661,0.723
17,NCI-H1563,0.812
18,NCI-H1623,0.446
19,NCI-H1648,0.293

# Same assay, conditions: first compound 0.1 µM
row,Cell Line,relative viability
1,201T,0.669
2,A-427,0.481
3,ABC-1,0.405
4,BEN,0.297
5,CAL-12T,0.582
6,COR-L23,0.717
7,COR-L 105,0.558
8,ChaGo-K-1,0.511
9,EKVX,0.679
10,EPLC-272H,0.242
11,H3255,0.584
12,HARA,0.591
13,HCC-15,0.756
14,HCC-44,0.538
15,HCC-78,0.325
16,HCC-366,0.897
17,HCC-827,0.738
18,HOP-62,0.852
19,LC-2-ad,0.892
20,LCLC-97TM1,0.584

row,Cell Line,relative viability
1,LCLC-103H,0.428
2,LK-2,0.207
3,LOU-NH91,0.742
4,LU99A,0.307
5,LXF-289,0.721
6,NCI-H23,0.553
7,NCI-H322M,0.451
8,NCI-H358,0.637
9,NCI-H441,0.471
10,NCI-H460,0.561
11,NCI-H520,0.212
12,NCI-H522,0.718
13,NCI-H596,0.752
14,NCI-H647,0.569
15,NCI-H650,0.526
16,NCI-H661,0.685
17,NCI-H1563,0.766
18,NCI-H1623,0.389
19,NCI-H1648,0.248

# Same assay, conditions: first compound 0.3162 µM
row,Cell Line,relative viability
1,201T,0.666
2,A-427,0.268
3,ABC-1,0.419
4,BEN,0.273
5,CAL-12T,0.235
6,COR-L23,0.349
7,COR-L 105,0.503
8,ChaGo-K-1,0.591
9,EKVX,0.651
10,EPLC-272H,0.208
11,H3255,0.539
12,HARA,0.368
13,HCC-15,0.802
14,HCC-44,0.578
15,HCC-78,0.339
16,HCC-366,0.889
17,HCC-827,0.724
18,HOP-62,0.85
19,LC-2-ad,0.694
20,LCLC-97TM1,0.49

row,Cell Line,relative viability
1,LCLC-103H,0.417
2,LK-2,0.216
3,LOU-NH91,0.677
4,LU99A,0.298
5,LXF-289,0.938
6,NCI-H23,0.327
7,NCI-H322M,0.312
8,NCI-H358,0.326
9,NCI-H441,0.425
10,NCI-H460,0.341
11,NCI-H520,0.224
12,NCI-H522,0.659
13,NCI-H596,0.732
14,NCI-H647,0.26
15,NCI-H650,0.446
16,NCI-H661,0.284
17,NCI-H1563,0.757
18,NCI-H1623,0.431
19,NCI-H1648,0.251

# Source: the supplement of paper PMC10307832
